# Assay results published in patent publication US20240025953A1, “COMPOSITIONS AND METHODS FOR INHIBITING ALPHA-SYNUCLEIN AGGREGATION” (Seelos Therapeutics, Inc., priority 2020, published 2024).
# Where two headings read alike, the source gives them in different places. Ends that are not written are not given here.
# Experiments:
# Assay type in all cases: in vitro ADME
# Stability in rat plasma = conditions: in vitro in rat plasma, 1% TCA and methanol as quenchers
# Experimental: S62 and S71 peptides (SEQ ID NOs: 3 and 4, respectively) were incubated in vitro in rat plasma with 1% TCA and methanol as quenchers for a period of time calculated to be reflective of the amount of time the peptides would be subject to in vivo conditions if administered to rats.
# [1] = Permeability in a Caco-2 assay; conditions: human; for efflux ratio at 10 μM: read-out: Mean (B-A/A-B) Efflux Ratio
# Experimental: (§1) Permeability of the S62 and S71 peptides were assessed in a Caco-2 assay using methanol.
# (§2) Permeability Ranking: lower is <1×10−6 cm/s; higher is >1×10-6 cm/s.
# Caco-2 = experiment: Permeability in a Caco-2 assay; conditions: Caco-2 assay using methanol
# Experimental: as §1, §2
# [2] = Caco-2, Assay Conc. 10 μM, without verapamil, read-out: Mean A-B % Recovery
# [3] = Caco-2, Assay Conc. 10 μM, without verapamil, read-out: Mean B-A % Recovery
# [4] = Caco-2, with Verapamil 25 uM, Assay Conc. 10 μM, with Verapamil 25 uM, read-out: Mean A-B % Recovery
# [5] = Caco-2, with Verapamil 25 uM, Assay Conc. 10 μM, with Verapamil 25 uM, read-out: Mean B-A % Recovery
# [6] = Caco-2, Assay Conc. 10 μM, without verapamil
recovery of the peptides after incubation in rat plasma (Stability in rat plasma),"recovery at 10 μM [1, 2]","recovery at 10 μM [1, 3]","recovery at 10 μM [1, 4]","recovery at 10 μM [1, 5]","Papp A→B at 10 μM [1, 6]","Papp B→A at 10 μM [1, 6]","efflux ratio at 10 μM [1, 6]",Compound,Permeability (in words) (Caco-2)
not high enough to detect,91.4%,74.7%,80.7%,92.7%,,,,"RAVVTGVTAVAE [S71, RAVVTGVTAVAE]",neither of the peptides exhibited permeability
,93%,93.4%,,,36.8 ×10⁻⁶ cm/s,33.8 ×10⁻⁶ cm/s,0.917,"CC(=O)CC(c1ccccc1)c1c(O)c2ccccc2oc1=O (stereo not shown) [Warfarin, reference compound]",
,87.1%,95.2%,,,0.391 ×10⁻⁶ cm/s,1.03 ×10⁻⁶ cm/s,2.65,"CNC(=C[N+](=O)[O-])NCCSCc1ccc(CN(C)C)o1 [Ranitidine, reference compound]",
not high enough to detect,70.1%,92.5%,59.7%,91.3%,,,,"GAVVWGVTAVKK [S62, GAVVWGVTAVKK]",neither of the peptides exhibited permeability
